One compound from patent US6214859A, “Ethylamine derivatives” (Fujimoto Brothers Co., Ltd., priority 1997, dated 2001) can be followed below.

Data set [1] has as its system dopamine release, substantia nigra. As to the kind of experiment: Release of biogenic amines from brain tissue: dopamine, substantia nigra. The class given is in vivo, Wistar rats.
The next data set relates to serotonin release, raphe. Description: Release of biogenic amines from brain tissue: serotonin, raphe. Format: in vivo, Wistar rats.
For data set [2], the system named is rats reduced learning ability by tetrabenazine. Description: Conditioned avoidance task in the shuttle box (tetrabenazine-treated rats). The class given is in vivo, rat. To be noted: tetrabenazine 1 mg/kg s.c., significance and direction. The method, boiled down: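 Male and female rats (200–220 g) were trained in a shuttle box (light/buzzer conditioned stimulus, 100 trials/day for 5 days). Tetrabenazine 1 mg/kg s.c. was given 1 h before testing, with compound at 1, 2, 2.5 or 5 mg/kg s.c. given together with tetrabenazine. CARs, EFs and IRs were counted automatically and analysed by multi-way ANOVA.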

For another data set, the system named is mice. Description: Toxicity test in mice in the single administration. Format: in vivo, mouse. To be noted: 50 mg/kg s.c., two weeks. Here is the method:
After the compounds of Examples 3, 25, 27 and 28 were administered subcutanously to mice, general symptoms of the mice were observed every day for two weeks.

Data set [3] relates to dopamine release, tuberculum olfactorium. Description: Release of biogenic amines from brain tissue: dopamine, tuberculum olfactorium. Format: in vivo, Wistar rats.
The subject of data set [4] is noradrenaline release, locus coeruleus. As to the kind of experiment: Release of biogenic amines from brain tissue: noradrenaline, locus coeruleus. Format: in vivo, Wistar rats.
The test system of data set [5] is dopamine release, striatum. As to the kind of experiment: Release of biogenic amines from brain tissue: dopamine, striatum. The class given is in vivo, Wistar rats.

Molecules are shown by their SMILES.

`CCCNC(CCC)Cc1ccc2ccccc2c1.Cl` (stereo not drawn) [Compound No. 3, 1-(2-Naphthyl)-2-propylaminopentane Hydrochloride]: the “Release of dopamine, substantia nigra” value is 4.9 ± 0.07 nmol/g tissue, for 20 min in data set [1] (0.25 mg/kg s.c.); 4.5 ± 0.07 nmol/g tissue, for 20 min in data set [1] (1.00 mg/kg s.c., Hydrochloride); 9.0 ± 0.50 nmol/g tissue, for 20 min in data set [1] (5.00 mg/kg s.c.). Besides, the “Release of serotonin, raphe” value in the data set with serotonin release, raphe (0.25 mg/kg s.c.) was 0.958 ± 0.03 nmol/g tissue, for 20 min; with serotonin release, raphe (5.00 mg/kg s.c.), 1.215 ± 0.14 nmol/g tissue, for 20 min. The “Escape Failures (EFs)” value was “**** .dwnarw” in data set [2] (1 mg/kg s.c.), “**** .dwnarw” in data set [2] (2 mg/kg s.c.), “*** .dwnarw” in data set [2] (2.5 mg/kg s.c.) and “**** .dwnarw” in data set [2] (5 mg/kg s.c.). The “Condition Avoidance Reflex (CARs)” value in data set [2] (1 mg/kg s.c., Hydrochloride) was “**** .Arrow-up bold”; in data set [2] (2 mg/kg s.c.) it was “**** .Arrow-up bold”; in data set [2] (2.5 mg/kg s.c.), “**** .Arrow-up bold”; in data set [2] (5 mg/kg s.c.), “**** .Arrow-up bold”. Further, the “Intersignal Reactions (IRs)” value in data set [2] (2.5 mg/kg s.c.) is “* .dwnarw”. In addition, in the data set on mice, the survival entry was “all the mice survived”. Further, the “Release of dopamine, tuberculum olfactorium” value in data set [3] (0.25 mg/kg s.c.) is reported as 4.3 ± 0.09 nmol/g tissue, for 20 min; in data set [3] (1.00 mg/kg s.c., Hydrochloride), 5.2 ± 0.12 nmol/g tissue, for 20 min; in data set [3] (5.00 mg/kg s.c.), 5.1 ± 0.39 nmol/g tissue, for 20 min. The “Release of noradrenaline, locus coeruleus” value is recorded as 4.4 ± 0.10 nmol/g tissue, for 20 min in data set [4] (0.25 mg/kg s.c.); 2.6 ± 0.10 nmol/g tissue, for 20 min in data set [4] (1.00 mg/kg s.c., Hydrochloride); 2.2 ± 0.11 nmol/g tissue, for 20 min in data set [4] (5.00 mg/kg s.c.). For the same compound, the “Release of dopamine, striatum” value in data set [5] (0.25 mg/kg s.c.) is on record as 3.4 ± 0.03 nmol/g tissue, for 20 min; in data set [5] (1.00 mg/kg s.c., Hydrochloride), 3.9 ± 0.12 nmol/g tissue, for 20 min; in data set [5] (5.00 mg/kg s.c.), 3.8 ± 0.04 nmol/g tissue, for 20 min.
